Like-named read-outs stand apart in the source and are kept apart here.
System: Gram-positive bacteria
Test: MIC against Gram-positive bacteria
Assay type: cell-based
Method: We have tested the antimicrobial activity in vitro of over 100 tris(indolyl)methane derivatives against 16 strains of Gram-positive, Gram-negative bacteria and fungi including either sensitive or drug-resistant strains from ATCC, as well as resistant clinical isolates from the culture collection of the Laboratory for Control of Hospital Infections (Sechenov University, Moscow, Russia). The minimum inhibitory concentrations (MICs) were determined by the microdilution method in a cation-adjusted Müller–Hinton medium for bacteria and in a liquid culture medium RPMI 1640 with L-glutamine without sodium bicarbonate for fungi in accordance with the requirements of the Institute of Clinical and Laboratory Standards (CLSI/NCCLS). […] As a rule, their activity against Gram-negative bacteria was usually not that high. […] For comparison, the antimicrobial activity of prototype 4 is shown. The antibacterial antibiotic levofloxacin and the antifungal amphotericin B were used as reference drugs (Table 1).
The minimum inhibitory concentrations (MIC) for Gram-positive and Gram-negative bacteria were determined by two-fold serial microdilution method in a cation-adjusted Müller–Hinton medium for bacteria and in a liquid culture medium RPMI 1640 with L-glutamine without sodium bicarbonate for fungi in accordance with the requirements of the Institute of Clinical and Laboratory Standards (CLSI/NCCLS). The antibacterial antibiotic levofloxacin and the antifungal antibiotic amphotericin B from Sigma-Aldrich were used as reference drugs.

Row | SMILES | MIC (read-out: MIC) [µg/mL] | MIC [µg/mL]
1 | OCCCCCn1cc([C+](c2cn(CCCCCO)c3ccccc23)c2cn(CCCCCO)c3ccccc23)c2ccccc21.[Cl-] [Compound 1, tris(1-(5-Hydroxypentyl)-1H-indol-3-yl) methylium chloride] | 2 | –
2 | CCCn1cc([C+](c2cn(CCC)c3ccccc23)c2cn(C3=C(N(C)C)C(=O)NC3=O)c3ccccc23)c2ccccc21 [Compound 3, 1-(4-Dimethylamino-2,5-dioxo-2,5-dihydro-1H-pyrrol-3-yl) -1H-indol-3-yl) bis(1-propyl-1H-indol-3-yl) methylium chloride] | – | 0.13

Reference: paper PMC8878324, “Evaluation of New Antimicrobial Agents Based on tris(1H-Indol-3-yl)methylium Salts: Activity, Toxicity, Suppression of Experimental Sepsis in Mice” (Pharmaceuticals, 2022)
